From the CheMixHub viscosity set
Where “and” joins values, the source holds several entries; their conditions need not be identical. Equal entries are not always repeated.

Assay: xn = mol fraction of the nth substance listed

N[C@@H](CO)C(=O)O + O
Conditions	viscosity
298 K, 101 kPa, x1 = 0.0004	0.8836 mPa·s
298 K, 101 kPa, x1 = 0.0007	0.8853 mPa·s
298 K, 101 kPa, x1 = 0.001	0.889 mPa·s and 0.8901 mPa·s
298.15 K, 101 kPa, x1 = 8.92e-05	0.9214 mPa·s
298.15 K, 101 kPa, x1 = 0.000181	0.9346 mPa·s
298.15 K, 101 kPa, x1 = 0.00045	0.9108 mPa·s
298.15 K, 101 kPa, x1 = 0.000898	0.9225 mPa·s
298.15 K, 101 kPa, x1 = 0.00135	0.9328 mPa·s
298.15 K, 101 kPa, x1 = 0.00178	0.9489 mPa·s
298.15 K, 101 kPa, x1 = 0.001798	0.942 mPa·s
298.15 K, 101 kPa, x1 = 0.002245	0.9508 mPa·s
298.15 K, 101 kPa, x1 = 0.002695	0.9596 mPa·s
298.15 K, 101 kPa, x1 = 0.003143	0.9678 mPa·s
298.15 K, 101 kPa, x1 = 0.00359	0.9758 mPa·s
298.15 K, 101 kPa, x1 = 0.003599	0.9614 mPa·s
298.15 K, 101 kPa, x1 = 0.005265	0.9714 mPa·s
298.15 K, 101 kPa, x1 = 0.007246	0.9945 mPa·s
298.15 K, 101 kPa, x1 = 0.008825	1.011 mPa·s
298.15 K, 101 kPa, x1 = 0.01096	1.024 mPa·s
298.15 K, 101 kPa, x1 = 0.01198	1.04 mPa·s
298.15 K, 101 kPa, x1 = 0.01387	1.059 mPa·s
298.15 K, 101.3 kPa, x1 = 0.0008915	0.901 mPa·s
298.15 K, 101.3 kPa, x1 = 0.001352	0.905 mPa·s
298.15 K, 101.3 kPa, x1 = 0.001784	0.909 mPa·s
298.15 K, 101.3 kPa, x1 = 0.002244	0.913 mPa·s
298.15 K, 101.3 kPa, x1 = 0.002683	0.917 mPa·s
303.15 K, 101 kPa, x1 = 0.00045	0.8151 mPa·s
303.15 K, 101 kPa, x1 = 0.000898	0.8252 mPa·s
303.15 K, 101 kPa, x1 = 0.00135	0.834 mPa·s
303.15 K, 101 kPa, x1 = 0.001798	0.8418 mPa·s
303.15 K, 101 kPa, x1 = 0.002245	0.8494 mPa·s
303.15 K, 101 kPa, x1 = 0.002695	0.8566 mPa·s
303.15 K, 101 kPa, x1 = 0.003143	0.8637 mPa·s
303.15 K, 101 kPa, x1 = 0.00359	0.8705 mPa·s
303.15 K, 101.3 kPa, x1 = 0.0008915	0.807 mPa·s
303.15 K, 101.3 kPa, x1 = 0.001352	0.811 mPa·s
303.15 K, 101.3 kPa, x1 = 0.001784	0.815 mPa·s
305.15 K, 101 kPa, x1 = 0.0003602	0.7851 mPa·s
305.15 K, 101 kPa, x1 = 0.0007201	0.7891 mPa·s
305.15 K, 101 kPa, x1 = 0.00108	0.7935 mPa·s
305.15 K, 101 kPa, x1 = 0.001439	0.7984 mPa·s
305.15 K, 101 kPa, x1 = 0.001798	0.8025 mPa·s
305.15 K, 101 kPa, x1 = 0.002157	0.8071 mPa·s
308.15 K, 101 kPa, x1 = 8.92e-05	0.7615 mPa·s
308.15 K, 101 kPa, x1 = 0.000181	0.7756 mPa·s
308.15 K, 101 kPa, x1 = 0.00045	0.7347 mPa·s
308.15 K, 101 kPa, x1 = 0.000898	0.7434 mPa·s
308.15 K, 101 kPa, x1 = 0.00135	0.751 mPa·s
308.15 K, 101 kPa, x1 = 0.00178	0.7901 mPa·s
308.15 K, 101 kPa, x1 = 0.001798	0.7578 mPa·s
308.15 K, 101 kPa, x1 = 0.002245	0.7641 mPa·s
308.15 K, 101 kPa, x1 = 0.002695	0.7704 mPa·s
308.15 K, 101 kPa, x1 = 0.003143	0.7764 mPa·s
308.15 K, 101 kPa, x1 = 0.00359	0.7822 mPa·s
308.15 K, 101 kPa, x1 = 0.003599	0.8056 mPa·s
308.15 K, 101 kPa, x1 = 0.005265	0.8198 mPa·s
308.15 K, 101 kPa, x1 = 0.007246	0.8356 mPa·s
308.15 K, 101 kPa, x1 = 0.008825	0.8542 mPa·s
308.15 K, 101 kPa, x1 = 0.01096	0.8741 mPa·s
308.15 K, 101 kPa, x1 = 0.01198	0.8898 mPa·s
308.15 K, 101 kPa, x1 = 0.01387	0.9046 mPa·s
310.15 K, 101 kPa, x1 = 0.0003602	0.7043 mPa·s
310.15 K, 101 kPa, x1 = 0.0007201	0.708 mPa·s
310.15 K, 101 kPa, x1 = 0.00108	0.7119 mPa·s
310.15 K, 101 kPa, x1 = 0.001439	0.7158 mPa·s
310.15 K, 101 kPa, x1 = 0.001798	0.7189 mPa·s
310.15 K, 101 kPa, x1 = 0.002157	0.7232 mPa·s
313.15 K, 101 kPa, x1 = 0.00045	0.6665 mPa·s
313.15 K, 101 kPa, x1 = 0.000898	0.6741 mPa·s
313.15 K, 101 kPa, x1 = 0.00135	0.6807 mPa·s
313.15 K, 101 kPa, x1 = 0.001798	0.6867 mPa·s
313.15 K, 101 kPa, x1 = 0.002245	0.6922 mPa·s
313.15 K, 101 kPa, x1 = 0.002695	0.6976 mPa·s
313.15 K, 101 kPa, x1 = 0.003143	0.7029 mPa·s
313.15 K, 101 kPa, x1 = 0.00359	0.7078 mPa·s
315.15 K, 101 kPa, x1 = 0.0003602	0.6498 mPa·s
315.15 K, 101 kPa, x1 = 0.0007201	0.6537 mPa·s
315.15 K, 101 kPa, x1 = 0.00108	0.6566 mPa·s
315.15 K, 101 kPa, x1 = 0.001439	0.66 mPa·s
315.15 K, 101 kPa, x1 = 0.001798	0.6629 mPa·s
315.15 K, 101 kPa, x1 = 0.002157	0.6666 mPa·s
318.15 K, 101 kPa, x1 = 8.92e-05	0.6512 mPa·s
318.15 K, 101 kPa, x1 = 0.000181	0.6602 mPa·s
318.15 K, 101 kPa, x1 = 0.00045	0.6097 mPa·s
318.15 K, 101 kPa, x1 = 0.000898	0.6164 mPa·s
318.15 K, 101 kPa, x1 = 0.00135	0.6222 mPa·s
318.15 K, 101 kPa, x1 = 0.00178	0.6723 mPa·s
318.15 K, 101 kPa, x1 = 0.001798	0.6275 mPa·s
318.15 K, 101 kPa, x1 = 0.002245	0.6324 mPa·s
318.15 K, 101 kPa, x1 = 0.002695	0.6371 mPa·s
318.15 K, 101 kPa, x1 = 0.003143	0.6417 mPa·s
318.15 K, 101 kPa, x1 = 0.00359	0.6461 mPa·s
318.15 K, 101 kPa, x1 = 0.003599	0.6845 mPa·s
318.15 K, 101 kPa, x1 = 0.005265	0.6953 mPa·s
318.15 K, 101 kPa, x1 = 0.007246	0.7012 mPa·s
318.15 K, 101 kPa, x1 = 0.008825	0.7125 mPa·s
318.15 K, 101 kPa, x1 = 0.01096	0.7242 mPa·s
318.15 K, 101 kPa, x1 = 0.01198	0.7345 mPa·s
318.15 K, 101 kPa, x1 = 0.01387	0.7466 mPa·s
